What was measured:
[1] = target: KRAS G13D (Homo sapiens, UniProt P01116, G13D); assay: cellular thermal stability assay in HCT-116 lysates, western blot; format: biochemical
[2] = target: KRAS G12C (Homo sapiens, UniProt P01116, G12C); assay: cellular thermal stability assay; format: cell-based
Chain of KRAS G12C (P01116 2-186 G12C): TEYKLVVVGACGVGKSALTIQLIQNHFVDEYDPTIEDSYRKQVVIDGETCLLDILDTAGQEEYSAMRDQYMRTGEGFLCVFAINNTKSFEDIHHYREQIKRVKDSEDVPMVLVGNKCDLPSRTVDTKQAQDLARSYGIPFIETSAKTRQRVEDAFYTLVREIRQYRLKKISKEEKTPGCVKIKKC

Chain of KRAS G13D (P01116 2-186 G13D): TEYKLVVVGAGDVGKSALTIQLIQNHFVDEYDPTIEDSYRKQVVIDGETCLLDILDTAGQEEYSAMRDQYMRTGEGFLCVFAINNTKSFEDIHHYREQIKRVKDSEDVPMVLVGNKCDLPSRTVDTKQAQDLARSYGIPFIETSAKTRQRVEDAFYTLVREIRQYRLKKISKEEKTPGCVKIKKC

Compound: COc1cc(/C=C2/C(C)=C(CC(=O)NCc3ccco3)c3cc(F)ccc32)cc(OC)c1O [ADT-007, (Z)-2-(5-fluoro-1-(4-hydroxy-3,5-dimethoxybenzylidene)-2-methyl-1H-inden-3-yl)-N-(furan-2-ylmethyl)acetamide]
- EC50 [1]: 0.45 nM
- EC50 [2]: 8.49 nM
